Values joined by “and” are separate entries in the source; they are usually repeats but may differ in a detail not shown here. Equal entries are not always repeated. “Also recorded” adds a separate entry of the source. Where two headings read alike, the source gives them in different places.
How the values were obtained:
thyroid peroxidase (TPO) [1] = target: T1, thyroid peroxidase (TPO) (Sus scrofa, UniProt P09933); experiment: TPO inhibitory assay (guaiacol oxidation); assay type: biochemical, porcine; settings: for Mode of Inhibition: Lineweaver-Burk plot, with respect to guaiacol; for Vmax: TPO in presence of inhibitor; for Vmax / Ki / IC50: n = 9; for IC50: porcine thyroid TPO, guaiacol assay, read-out: IC50 of TPO inhibition
T1 construct: The frozen thyroid gland was cut into slices and homogenized in a buffer containing 0.25 M sucrose; from tissue; host or cells: porcine thyroid gland (homogenate, centrifuged, salted-out to 60%)
T1 sequence (P09933 15-926): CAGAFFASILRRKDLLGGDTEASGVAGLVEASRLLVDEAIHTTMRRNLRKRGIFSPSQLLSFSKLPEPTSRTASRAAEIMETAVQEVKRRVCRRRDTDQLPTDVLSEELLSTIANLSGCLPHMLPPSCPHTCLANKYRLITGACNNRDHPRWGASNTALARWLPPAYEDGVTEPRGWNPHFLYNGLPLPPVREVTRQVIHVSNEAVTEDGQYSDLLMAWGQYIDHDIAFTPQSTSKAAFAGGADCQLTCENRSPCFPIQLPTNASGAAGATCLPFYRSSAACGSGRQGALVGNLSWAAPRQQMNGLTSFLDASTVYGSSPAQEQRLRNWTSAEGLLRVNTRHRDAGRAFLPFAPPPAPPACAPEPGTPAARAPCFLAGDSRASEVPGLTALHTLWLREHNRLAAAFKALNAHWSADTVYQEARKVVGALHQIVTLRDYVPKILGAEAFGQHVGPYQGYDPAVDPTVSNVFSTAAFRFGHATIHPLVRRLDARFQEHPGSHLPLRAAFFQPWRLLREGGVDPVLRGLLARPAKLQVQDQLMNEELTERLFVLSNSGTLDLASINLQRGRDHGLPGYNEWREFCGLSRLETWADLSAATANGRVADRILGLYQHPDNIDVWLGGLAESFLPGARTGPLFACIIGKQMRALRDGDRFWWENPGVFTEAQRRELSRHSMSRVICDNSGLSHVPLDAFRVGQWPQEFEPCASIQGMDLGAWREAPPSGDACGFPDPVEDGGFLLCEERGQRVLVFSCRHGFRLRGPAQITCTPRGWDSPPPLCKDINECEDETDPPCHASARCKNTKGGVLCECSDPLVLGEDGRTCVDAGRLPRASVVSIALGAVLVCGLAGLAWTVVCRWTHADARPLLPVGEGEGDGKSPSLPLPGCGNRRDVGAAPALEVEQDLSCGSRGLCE
Protocol: Porcine thyroid glands were obtained at a local slaughterhouse (Lublin, Poland) and stored in −20 °C until used.
The assay was prepared according to Jomaa with some modifications. The frozen thyroid gland was cut into slices and homogenized in a buffer containing 0.25 M sucrose, 2 mM Tris—HCl, 100 mM KCl, 40 mM NaCl, 10 mM MgCl2 (pH 7.4) with a Philips homogenizer. The thyroid gland was than centrifuged two times at 4000 RPM per 15 min in temperature +4 °C. The enzyme protein was then salted-out to 60%. The supernatant was used for further analysis and was stored in a −20 °C freezer.
The activity of the enzyme was assayed using a guaiacol assay. […] The reaction components were incubated in 37 °C before the assignment. […] The assay was conducted as follows: To a cuvette, 180 µL of buffer, 100 µL of guaiacol and 40 µL of TPO were mixed to the final volume of […]. The cuvette was then placed into the spectrophotometer and the reaction was started by the addition of 100 µL H2O2. Absorbance readings were recorded every minute for a total of 3 min. Verification of the TPO activity was accomplished by linearly correlating the TPO concentration with absorbance readings.
(§1) The assay was used according to Jomaa with some modification. The measurement was made using a plate spectrophotometer (BioTek, Model Epoch2TC, Winooski, Vermont, VT, USA) in 96–well plates at a wavelength of 470 nm. The assay was conducted as follows: 50 µl of buffer, 40 µl of pure substance solution, 50 µL of guaiacol, 20 µL of TPO enzyme and 50 µL H2O2. The total volume of the mixture was 210 µL. In the sample probe, extracts were replaced by the buffer. Absorbance readings were recorded every minute for a total of 3 min in 37^o. As a unit of TPO activity is defined as the change of absorbation per minute.
TPO inhibitory activity was calculated as follows: %inhibition=(1−ΔA/mintest/ΔAminblank)×100 Where: ΔA/min test is the linear absorbance change per minute of the test material and ΔA min blank is the linear change in absorbance per minute of the blank.
The IC50 value was determined by the interpolation of dose response curves. […] The mode of inhibition of the enzyme was performed using the Lineweaver–Burk plot.

TPO [2] = system: TPO; design: method as in PMID 8924586; settings: read-out: IC50 in relation to TPO; cited from earlier work
[3] = after meal containing 150 g fried onions (equivalent to 64 mg quercetin); cited from earlier work
[4] = ABTS radical scavenging (in vitro antioxidant capacity) assay; settings: n = 9
Protocol: The ABTS radical scavenging activity was determined according to Re et al. with some modifications. 250 µL of ABTS solution was mixed with 10 µL of each pure polyphenols solutions (concentration 50 µg/mL) and measured at the wavelength 724 nm using a UV/Vis spectrophotometer (BioTek, Model Epoch2TC, Winooski, Vermont, VT, USA) after 15 min of incubation in room temperature. The inhibition percentage of ABTS discoloration was calculated using the following equation: AA=Ac−Ap/Ac×100% Where Ac—the absorbance of control, Ap—the absorbance of pure polyphenols solutions.

thyroid peroxidase (TPO) [5] = target: T1, thyroid peroxidase (TPO); experiment: Effect of pure substance combinations on TPO activity (isobolographic analysis); assay type: biochemical, porcine; design: key to CI (Combination Index): CI <1 = synergy, =1 = addition, >1 = antagonism; settings: TPO inhibition; for CI (Combination Index): n = 9
Protocol: as §1
Results (type and strength of interactions) can be shown on the isobolograms and described by the combination Index (CI). When CI is lower than one, indicates synergy; when CI is equal to one, indicates addition; when CI is higher than one, indicates antagonism. Isobolograms were performed according to Chou. […] Pure substances were mixed in various volume ratios: 1:4, 4:1, 3:2, 2:3, 1:1. All of the mixtures were made in combinations of two substances. The inhibitory assay was made using the same proportions as with single solutions.

[6] = design: method as in doi:10.1039/C6RA28237G; settings: rats, cited from earlier work
[7] = design: method as in PMID 25978046; settings: Melissa officinalis extract containing 500 mg rosmarinic acid, fasted state; cited from earlier work
[8] = six weeks supplementation with rutin, volunteers; cited from earlier work
TPO [9] = system: TPO; design: method as in PMID 25822105; settings: according to literature data ref 22; read-out: IC50 of TPO inhibition (positive controls); cited from earlier work
[10] = mixture with Chlorogenic Acid, listed as Rosmarinic acid
[11] = mixture with Quercetin, listed as Rosmarinic acid
[12] = mixture with Chlorogenic Acid, listed as Rutin

SMILES: O=c1c(O)c(-c2ccc(O)c(O)c2)oc2cc(O)cc(O)c12 [quercetin]
- Mode of Inhibition (thyroid peroxidase (TPO) [1]): uncompetitive
- Vmax (thyroid peroxidase (TPO) [1]): 149.25 ± 4.35 a ΔAU/min
- IC50 (TPO [2]): 2.4 µM
- human plasma concentration of quercetin [3]: about 0.65 umol/l
- IC50 [4]: 450 µM and 447 µM
- Type of interaction (scale according to Chou) (thyroid peroxidase (TPO) [5]; mixture with Chlorogenic Acid): Antagonism
- Type of interaction (scale according to Chou) (thyroid peroxidase (TPO) [5]; mixture with Rosmarinic Acid): Moderate antagonism

SMILES: O=C(/C=C/c1ccc(O)c(O)c1)O[C@H](Cc1ccc(O)c(O)c1)C(=O)O [rosmarinic acid]
- Mode of Inhibition (thyroid peroxidase (TPO) [1]): competitive
- Vmax (thyroid peroxidase (TPO) [1]): 175.44 ± 7.01 b ΔAU/min
- Ki (thyroid peroxidase (TPO) [1]): 1 µM
- IC50 (thyroid peroxidase (TPO) [1]): 4 ± 0.14 µM
- absolute bioavailability ([6]; oral 25 mg/kg): 1.28%
- absolute bioavailability ([6]; oral 50 mg/kg): 0.91%
- absolute bioavailability ([6]; oral […]): 1.69%
- maximum serum concentration [7]: 162.20 nM
- time of peak serum concentration of total rosmarinic acid [7]: 1 h
- IC50 [4]: 151 ± 6 µM
- Type of interaction (scale according to Chou) (thyroid peroxidase (TPO) [5]; mixture with Chlorogenic Acid): moderate antagonism
- CI (Combination Index) (thyroid peroxidase (TPO) [5]; mixture with Chlorogenic Acid): 1.25
- CI (Combination Index) (thyroid peroxidase (TPO) [5]; [10]): 1.25 ± 0.05
- Type of interaction (scale according to Chou) (thyroid peroxidase (TPO) [5]; [10]): Moderate antagonism
- Type of interaction (scale according to Chou) (thyroid peroxidase (TPO) [5]; mixture with Quercetin): moderate antagonism; also recorded: antagonistic interaction
- CI (Combination Index) (thyroid peroxidase (TPO) [5]; mixture with Quercetin): 1.45
- CI (Combination Index) (thyroid peroxidase (TPO) [5]; [11]): 1.45 ± 0.03
- Type of interaction (scale according to Chou) (thyroid peroxidase (TPO) [5]; [11]): Moderate antagonism
- Type of interaction (scale according to Chou) (thyroid peroxidase (TPO) [5]; mixture with Rutin): nearly additive
- CI (Combination Index) (thyroid peroxidase (TPO) [5]; mixture with Rutin): 1.06 ± 0.05
- Type of interaction (scale according to Chou) (thyroid peroxidase (TPO) [5]; mixture with Rutin, listed as Rosmarinic acid): Nearly additive

SMILES: C[C@@H]1O[C@@H](OC[C@H]2O[C@@H](Oc3c(-c4ccc(O)c(O)c4)oc4cc(O)cc(O)c4c3=O)[C@H](O)[C@@H](O)[C@@H]2O)[C@H](O)[C@H](O)[C@H]1O [rutin]
- Mode of Inhibition (thyroid peroxidase (TPO) [1]): competitive
- Vmax (thyroid peroxidase (TPO) [1]): 149.25 ± 5.01 a ΔAU/min
- Ki (thyroid peroxidase (TPO) [1]): 130 ± 3 µM
- increase in plasma isorhamnetin [8]: 10 fold
- increase in plasma kaempferol [8]: 3 fold
- increase in plasma quercetin [8]: 2.5 fold
- IC50 (TPO [2]): 40.6 µM
- IC50 [4]: 292 ± 10 µM
- Type of interaction (scale according to Chou) (thyroid peroxidase (TPO) [5]; mixture with Chlorogenic Acid): slight synergism; also recorded: synergistically
- CI (Combination Index) (thyroid peroxidase (TPO) [5]; mixture with Chlorogenic Acid): 0.88
- CI (Combination Index) (thyroid peroxidase (TPO) [5]; [12]): 0.88 ± 0.02
- Type of interaction (scale according to Chou) (thyroid peroxidase (TPO) [5]; [12]): Slight synergism
- Type of interaction (scale according to Chou) (thyroid peroxidase (TPO) [5]; mixture with Quercetin): additive interaction; also recorded: nearly additive
- CI (Combination Index) (thyroid peroxidase (TPO) [5]; mixture with Quercetin): 0.096 and 0.096 ± 0.05
- Type of interaction (scale according to Chou) (thyroid peroxidase (TPO) [5]; mixture with Quercetin, listed as Rutin): additively; also recorded: Nearly additive
- Type of interaction (scale according to Chou) (thyroid peroxidase (TPO) [5]; mixture with Rosmarinic Acid): additively; also recorded: additive interaction
- Type of interaction (scale according to Chou) (thyroid peroxidase (TPO) [5]; mixture with Rosmarinic Acid, listed as Rutin): Nearly additive

SMILES: CCCc1cc(=O)[nH]c(=S)[nH]1 [Propylthiouracil]
- IC50 (TPO [9]): 4 µM

SMILES: O=C(/C=C/c1ccc(O)c(O)c1)O[C@@H]1C[C@](O)(C(=O)O)C[C@@H](O)[C@H]1O [chlorogenic acid]
- Mode of Inhibition (thyroid peroxidase (TPO) [1]): noncompetitive
- Vmax (thyroid peroxidase (TPO) [1]): 149.25 ± 5.97 a * ΔAU/min
- Ki (thyroid peroxidase (TPO) [1]): 170 ± 5 µM
- IC50 (thyroid peroxidase (TPO) [1]): 1440 ± 41 µM
- Type of interaction (scale according to Chou) (thyroid peroxidase (TPO) [5]; mixture with Quercetin): antagonism; also recorded: antagonistic interaction
- Type of interaction (scale according to Chou) (thyroid peroxidase (TPO) [5]; mixture with Quercetin, listed as Chlorogenic acid): Antagonism
- Type of interaction (scale according to Chou) (thyroid peroxidase (TPO) [5]; mixture with Rosmarinic Acid): antagonistic interaction; also recorded: Moderate antagonism
- Type of interaction (scale according to Chou) (thyroid peroxidase (TPO) [5]; mixture with Rutin): Slight synergism

SMILES: Cc1c(C)c2c(c(C)c1O)CCC(C)(C(=O)O)O2 (centres unmarked) [Trolox, 6-hydroxy-2,5,7,8-tetramethylchroman-2-carboxylic acid, reference compound]
- IC50 [4]: 407 ± 14 µM

SMILES: Cn1cc[nH]c1=S [Methimazole]
- IC50 (TPO [9]): 10.7 µM

Reference: article PMC6696198, “Thyroid Peroxidase Activity is Inhibited by Phenolic Compounds—Impact of Interaction” (Molecules, 2019)
